Experimental data published in patent publication US10039753B2, “Imidazo[4,5-c]quinoline and imidazo[4,5-c][1,5]naphthyridine derivatives as LRRK2 inhibitors” (Pfizer Inc., priority 2015, dated 2018).
Counter-ions that a name gives are not always drawn.

How the values were obtained:
[1] = biological target: T1, GST-tagged truncated LRRK2 (Homo sapiens, UniProt Q5S007); experiment: LRRK2 Assay, Format 2 (Lantha Screen), WT; type: biochemical; settings: geometric mean of 2-4 determinations unless otherwise indicated (a: >=5; b: single determination)
T1 construct: GST-tagged truncated LRRK2 from Invitrogen (Cat # PV4874); GST; purchased Invitrogen PV4874
T1 sequence (Q5S007 970-2527 limits assumed): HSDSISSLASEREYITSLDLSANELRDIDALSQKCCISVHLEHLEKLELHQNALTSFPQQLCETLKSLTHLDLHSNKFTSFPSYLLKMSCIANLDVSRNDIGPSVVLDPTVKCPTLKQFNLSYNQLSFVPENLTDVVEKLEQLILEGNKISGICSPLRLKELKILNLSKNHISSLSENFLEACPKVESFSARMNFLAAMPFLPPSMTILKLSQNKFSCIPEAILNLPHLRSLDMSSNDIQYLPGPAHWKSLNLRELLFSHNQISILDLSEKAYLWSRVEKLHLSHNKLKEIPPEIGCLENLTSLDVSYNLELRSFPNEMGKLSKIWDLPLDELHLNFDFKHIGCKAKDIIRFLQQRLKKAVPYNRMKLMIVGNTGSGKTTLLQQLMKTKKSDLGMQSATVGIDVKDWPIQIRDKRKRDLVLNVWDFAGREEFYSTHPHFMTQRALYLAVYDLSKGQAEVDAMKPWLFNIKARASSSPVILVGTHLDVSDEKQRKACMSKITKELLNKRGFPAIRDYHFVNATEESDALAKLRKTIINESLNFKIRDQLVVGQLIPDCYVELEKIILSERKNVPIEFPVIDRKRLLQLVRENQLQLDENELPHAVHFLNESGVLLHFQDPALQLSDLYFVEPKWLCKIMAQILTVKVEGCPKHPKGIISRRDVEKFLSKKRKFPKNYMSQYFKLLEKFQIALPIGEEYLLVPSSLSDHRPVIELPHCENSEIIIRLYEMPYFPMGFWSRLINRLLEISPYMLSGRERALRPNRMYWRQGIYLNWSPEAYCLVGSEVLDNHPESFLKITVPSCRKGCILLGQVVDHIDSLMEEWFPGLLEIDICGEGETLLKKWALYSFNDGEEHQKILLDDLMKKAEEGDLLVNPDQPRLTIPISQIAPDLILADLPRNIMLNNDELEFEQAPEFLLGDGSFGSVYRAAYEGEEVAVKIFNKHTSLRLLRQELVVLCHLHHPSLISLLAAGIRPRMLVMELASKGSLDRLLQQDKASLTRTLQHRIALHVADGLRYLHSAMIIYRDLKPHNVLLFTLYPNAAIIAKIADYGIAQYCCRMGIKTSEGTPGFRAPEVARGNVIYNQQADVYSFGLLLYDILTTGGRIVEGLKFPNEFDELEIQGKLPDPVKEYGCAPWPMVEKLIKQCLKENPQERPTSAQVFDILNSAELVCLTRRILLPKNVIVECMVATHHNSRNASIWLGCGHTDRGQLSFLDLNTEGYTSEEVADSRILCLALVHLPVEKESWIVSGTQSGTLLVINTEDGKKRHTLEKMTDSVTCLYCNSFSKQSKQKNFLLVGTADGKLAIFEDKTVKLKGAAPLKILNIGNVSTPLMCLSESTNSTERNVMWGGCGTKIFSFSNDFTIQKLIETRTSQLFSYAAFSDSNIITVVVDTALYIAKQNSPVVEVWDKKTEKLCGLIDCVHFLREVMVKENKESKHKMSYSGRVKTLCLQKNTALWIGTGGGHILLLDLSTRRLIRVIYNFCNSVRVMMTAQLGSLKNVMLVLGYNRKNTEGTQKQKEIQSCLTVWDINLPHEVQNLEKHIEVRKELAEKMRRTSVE

mutant G2019S LRRK2 = mutant G2019S LRRK2 (Homo sapiens, UniProt Q5S007, G2019S); experiment: LRRK2 Assay, Format 2 (Lantha Screen), G2019S mutant; type: biochemical; set-up: purchased Invitrogen PV4881; settings: geometric mean of 2-4 determinations unless otherwise indicated (a: >=5; b: single determination); read-out: LRRK2, Format 2 G2019S IC50
Chain of mutant G2019S LRRK2 (Q5S007 970-2527 G2019S limits assumed): as the sequence (Q5S007 970-2527 limits assumed) above, with G1050S counted along it

Structure (SMILES)	IC50 [1] [nM]	IC50 (mutant G2019S LRRK2) [nM]
C[C@@H]1C[C@H](n2c(Cc3cc(CO)on3)nc3cnc4ccc(Cl)cc4c32)CCO1 [Example 138]	2.89	3.72
C[C@@H]1C[C@H](n2c(Cc3cccnn3)nc3cnc4ccc(Cl)cc4c32)CCO1 [Example 142, 8-chloro-1-[(2R,4R)-2-methyltetrahydro-2H-pyran-4-yl]-2-(pyridazin-3-ylmethyl)-1H-imidazo[4,5-c]quinoline]	7.11	5.63
Cc1cn(Cc2nc3cnc4ccc(Cl)cc4c3n2C2CCOC(C)(C)C2)nn1 (centres unmarked) [Example 148, 8-chloro-1-(2,2-dimethyltetrahydro-2H-pyran-4-yl)-2-[(4-methyl-1H-1,2,3-triazol-1-yl)methyl]-1H-imidazo[4,5-c]quinoline, formate salt]	12.6	13.6
Cc1cc(Cc2nc3cnc4ccc(C#N)cc4c3n2C2CCCCC2(F)F)no1 (centres unmarked) [Example 151, 1-(2,2-difluorocyclohexyl)-2-[(5-methyl-1,2-oxazol-3-yl)methyl]-1H-imidazo[4,5-c]quinoline-8-carbonitrile, formate salt]	16.7	25.5
CCc1nn2cc(Cc3nc4cnc5ccc(C#N)cc5c4n3[C@@H]3CCO[C@H](C)C3)nc2s1 [Example 156, 2-[(2-ethylimidazo[2,1-b][1,3,4]thiadiazol-6-yl)methyl]-1-[(2R,4R)-2-methyltetrahydro-2H-pyran-4-yl]-1H-imidazo[4,5-c]quinoline-8-carbonitrile, formate salt]	4.78	4.31
C[C@@H]1C[C@H](n2c(Cc3cn4ccccc4n3)nc3cnc4ccc(C#N)cc4c32)CCO1 [Example 158, 2-(imidazo[1,2-a]pyridin-2-ylmethyl)-1-[(2R,4R)-2-methyltetrahydro-2H-pyran-4-yl]-1H-imidazo[4,5-c]quinoline-8-carbonitrile, formate salt]	6.01	5.22
Cc1ccn2cc(Cc3nc4cnc5ccc(Cl)cc5c4n3[C@@H]3CCO[C@H](C)C3)nc2n1 [Example 159, 8-chloro-2-[(7-methylimidazo[1,2-a]pyrimidin-2-yl)methyl]-1-[(2R,4R)-2-methyltetrahydro-2H-pyran-4-yl]-1H-imidazo[4,5-c]quinoline]	6.06	6.15
C[C@@H]1C[C@H](n2c(Cn3nccn3)nc3cnc4ccc(Cl)cc4c32)CCO1 [Example 161, 8-chloro-1-[(2R,4R)-2-methyltetrahydro-2H-pyran-4-yl]-2-(2H-1,2,3-triazol-2-ylmethyl)-1H-imidazo[4,5-c]quinoline, formate salt]	6.39	6.94
Cc1nn2cc(Cc3nc4cnc5ccc(Cl)cc5c4n3[C@@H]3CCO[C@H](C)C3)nc2s1 [Example 162, 8-chloro-2-[(2-methylimidazo[2,1-b][1,3,4]thiadiazol-6-yl)methyl]-1-[(2R,4R)-2-methyltetrahydro-2H-pyran-4-yl]-1H-imidazo[4,5-c]quinoline, formate salt]	3.86	3.83
C[C@@H]1C[C@H](n2c(Cc3ccn(C)n3)nc3cnc4ccc(Cl)cc4c32)CCO1 [Example 163, 8-chloro-2-[(1-methyl-1H-pyrazol-3-yl)methyl]-1-[(2R,4R)-2-methyltetrahydro-2H-pyran-4-yl]-1H-imidazo[4,5-c]quinoline]	7.01	7.25
C[C@@H]1C[C@H](n2c(Cc3cn4ccccc4n3)nc3cnc4ccc(Cl)cc4c32)CCO1 [Example 167, 8-chloro-2-(imidazo[1,2-a]pyridin-2-ylmethyl)-1-[(2R,4R)-2-methyltetrahydro-2H-pyran-4-yl]-1H-imidazo[4,5-c]quinoline, trifluoroacetate salt]	8.26	8.43
C[C@@H]1C[C@H](n2c(C(=O)c3ccon3)nc3cnc4ccc(Cl)cc4c32)CCO1 [Example 174, {8-chloro-1-[(2R,4R)-2-methyltetrahydro-2H-pyran-4-yl]-1H-imidazo[4,5-c]quinolin-2-yl}(1,2-oxazol-3-yl)methanone]	16.8	19.6

The remaining compounds from weak to strong by IC50 [1], led by results:

IC50 [1] [nM]	IC50 (mutant G2019S LRRK2) [nM]	Structure (SMILES)
25.1	40.8	Cc1cc(Cc2nc3cnc4ccc(C#N)cc4c3n2C2CCCC2)no1 [Example 152, 1-cyclopentyl-2-[(5-methyl-1,2-oxazol-3-yl)methyl]-1H-imidazo[4,5-c]quinoline-8-carbonitrile, formate salt]
14.1	12	Cc1cc(Cc2nc3cnc4ccc(Cl)cc4c3n2[C@@H]2CCO[C@H](CO)C2)no1 [Example 137, [(2S,4R)-4-{8-chloro-2-[(5-methyl-1,2-oxazol-3-yl)methyl]-1H-imidazo[4,5-c]quinolin-1-yl}tetrahydro-2H-pyran-2-yl]methanol]
11.8	8.99	Cc1nc(Cc2nc3cnc4ccc(C#N)cc4c3n2[C@@H]2CCO[C@H](C)C2)c(C2CC2)o1 [Example 155, 2-[(5-cyclopropyl-2-methyl-1,3-oxazol-4-yl)methyl]-1-[(2R,4R)-2-methyltetrahydro-2H-pyran-4-yl]-1H-imidazo[4,5-c]quinoline-8-carbonitrile, formate salt]
11.6	12.1	CC1(C)CC(n2c(Cn3cnnn3)nc3cnc4ccc(Cl)cc4c32)CCO1 (centres unmarked) [Example 150, 8-chloro-1-(2,2-dimethyltetrahydro-2H-pyran-4-yl)-2-(1H-tetrazol-1-ylmethyl)-1H-imidazo[4,5-c]quinoline, formate salt]
7.68	7.16	Cc1cnn(Cc2nc3cnc4ccc(C#N)cc4c3n2[C@@H]2CCO[C@H](C)C2)c1 [Example 133, 2-[(4-methyl-1H-pyrazol-1-yl)methyl]-1-[(2R,4R)-2-methyltetrahydro-2H-pyran-4-yl]-1H-imidazo[4,5-c]quinoline-8-carbonitrile]
7.35	7.38	C[C@@H]1C[C@H](n2c(Cc3cc4n(n3)CCC4)nc3cnc4ccc(Cl)cc4c32)CCO1 [Example 166, 8-chloro-2-(5,6-dihydro-4H-pyrrolo[1,2-b]pyrazol-2-ylmethyl)-1-[(2R,4R)-2-methyltetrahydro-2H-pyran-4-yl]-1H-imidazo[4,5-c]quinoline, trifluoroacetate salt]
7.23	7.86	C[C@@H]1C[C@H](n2c(Cc3cn(C)cn3)nc3cnc4ccc(Cl)cc4c32)CCO1 [Example 131, 8-chloro-2-[(1-methyl-1H-imidazol-4-yl)methyl]-1-[(2R,4R)-2-methyltetrahydro-2H-pyran-4-yl]-1H-imidazo[4,5-c]quinoline]
6.75	7.44	C[C@@H]1C[C@H](n2c(Cc3ccc4nnnn4n3)nc3cnc4ccc(Cl)cc4c32)CCO1 [Example 165, 8-chloro-1-[(2R,4R)-2-methyltetrahydro-2H-pyran-4-yl]-2-(tetrazolo[1,5-b]pyridazin-6-ylmethyl)-1H-imidazo[4,5-c]quinoline]
6.23	6.36	C[C@@H]1C[C@H](n2c(Cn3ccc(C4CC4)n3)nc3cnc4ccc(Cl)cc4c32)CCO1 [Example 160, 8-chloro-2-[(3-cyclopropyl-1H-pyrazol-1-yl)methyl]-1-[(2R,4R)-2-methyltetrahydro-2H-pyran-4-yl]-1H-imidazo[4,5-c]quinoline, formate salt]
6.04	5.34	C[C@@H]1C[C@H](n2c(Cc3nc4ccccc4o3)nc3cnc4ccc(C#N)cc4c32)CCO1 [Example 153, 2-(1,3-benzoxazol-2-ylmethyl)-1-[(2R,4R)-2-methyltetrahydro-2H-pyran-4-yl]-1H-imidazo[4,5-c]quinoline-8-carbonitrile, formate salt]
5.88	6.18	C[C@@H]1C[C@H](n2c(Cc3cc(=O)n4ccccc4n3)nc3cnc4ccc(Cl)cc4c32)CCO1 [Example 164, 2-({8-chloro-1-[(2R,4R)-2-methyltetrahydro-2H-pyran-4-yl]-1H-imidazo[4,5-c]quinolin-2-yl}methyl)-4H-pyrido[1,2-a]pyrimidin-4-one, formate salt]
4.01	3.71	C[C@@H]1C[C@H](n2c(Cc3noc4ccccc34)nc3cnc4ccc(C#N)cc4c32)CCO1 [Example 154, 2-(1,2-benzoxazol-3-ylmethyl)-1-[(2R,4R)-2-methyltetrahydro-2H-pyran-4-yl]-1H-imidazo[4,5-c]quinoline-8-carbonitrile, formate salt]
3.96	3.79	Cc1nn2cc(Cc3nc4cnc5ccc(C#N)cc5c4n3[C@@H]3CCO[C@H](C)C3)nc2s1 [Example 157, 2-[(2-methylimidazo[2,1-b][1,3,4]thiadiazol-6-yl)methyl]-1-[(2R,4R)-2-methyltetrahydro-2H-pyran-4-yl]-1H-imidazo[4,5-c]quinoline-8-carbonitrile, formate salt]
2.76	2.79	C[C@@H]1C[C@H](n2c(Cc3cc(CF)on3)nc3cnc4ccc(Cl)cc4c32)CCO1 [Example 139, 8-chloro-2-{[5-(fluoromethyl)-1,2-oxazol-3-yl]methyl}-1-[(2R,4R)-2-methyltetrahydro-2H-pyran-4-yl]-1H-imidazo[4,5-c]quinoline]
2.07	1.38	Cc1cnc(Cc2nc3cnc4ccc(C(F)(F)F)cc4c3n2[C@@H]2CCO[C@H](C)C2)cn1 [Example 141, 2-[(5-methylpyrazin-2-yl)methyl]-1-[(2R,4R)-2-methyltetrahydro-2H-pyran-4-yl]-8-(trifluoromethyl)-1H-imidazo[4,5-c]quinoline]
2.04	2.12	C[C@@H]1C[C@H](n2c(Cc3cn4ncsc4n3)nc3cnc4ccc(C#N)cc4c32)CCO1 [Example 149, 2-(imidazo[2,1-b][1,3,4]thiadiazol-6-ylmethyl)-1-[(2R,4R)-2-methyltetrahydro-2H-pyran-4-yl]-1H-imidazo[4,5-c]quinoline-8-carbonitrile]
